Test results published in US12043670B2, “Anti-BCMA antibody-drug conjugates and methods of use” (Eisai R&D Management Co., Ltd., priority 2020, dated 2024).

Key:
MM1.R cells = assay: CellTiter-Glo cell viability, MM1.R; type: cell-based, human; conditions: 96 h
OPM2 cells = assay: CellTiter-Glo cell viability, OPM2 (normal serum); type: cell-based, human
Caco-2 permeability = type: in vitro ADME; conditions: human
Description: Caco-2 cells were cultured for 21 days in transwell 24-well plates at 37° C., 95% humidity, 5% CO2. Integrity of cell monolayer was confirmed by TEER (transepithelial electrical resistance) and Lucifer yellow. Payloads were spiked in duplicate at 10 μM, separately, on both sides of the cell monolayer. Permeability rates from the apical to basolateral (A-B) direction and the basolateral to apical (B-A) direction were determined by sampling aliquots from both chambers immediately after treatment (t=0) and following incubation for 2 hours. Samples were protein precipitated with organic solvent containing internal standard and analyzed by LC-MS/MS (SCIEX; API 5500). The area ratio responses of payload/internal standard over time in both directions were used to generate permeability (cm/sec) values. Efflux ratio was calculated by dividing B-A/A-B. Control compounds for low and high permeability and efflux behaved as expected.

[1] = test system: splicing of Ad2.2 pre-mRNA in HeLa nuclear extract; assay: In vitro splicing (IVS), qPCR readout, Ad2.2 substrate; type: biochemical
Description: (§1) To evaluate payload activity in a cell-free system, an in vitro splicing assay was performed. The payloads were incubated with nuclear extracts and pre-mRNA substrate minigenes.
(§2) HeLa nuclear extract preparation: HeLa S3 cell pellets were resuspended in hypotonic buffer (10 mM HEPES pH 7.9, 1.5 mM MgCl2, 10 mM KCl, 0.2 mM PMSF, 0.5 mM DTT) and the suspension was brought up to a total of 5 packed cell volume (PCV). After centrifugation, the supernatant was discarded, and the cells were brought up to 3 PCV with hypotonic buffer and incubated on ice for 10 min. Cells were lysed using a dounce homogenizer and then centrifuged. The supernatant was discarded, and the pellet was resuspended with ½ packed nuclear volume (PNV) of low salt buffer (20 mM HEPES pH 7.9, 1.5 mM MgCl2, 20 mM KCl, 0.2 mM EDTA, 25% glycerol, 0.2 mM PMSF, 0.5 mM DTT), followed by ½ PNV of high salt buffer (same as low salt buffer except 1.4 M KCl). The nuclei were gently mixed for 30 min before centrifuging. The supernatant (nuclear extract) was then dialyzed into storage buffer (20 mM HEPES pH 7.9, 100 mM KCl, 0.2 mM EDTA, 20% glycerol, 0.2 mM PMSF, 0.5 mM DTT). Protein concentration was determined using NanoDrop 8000 UV-Vis spectrophotometer (ThermoFisher Scientific). […]

SF3b complex = target: T1, SF3b complex (Homo sapiens, UniProt O75533+Q7RTV0); assay: SF3B1 binding / scintillation proximity assay (SPA); conditions: competition with 2.5 nM [3H]-pladienolide B probe
T1 construct: endogenous in cells; host or cells: nuclear extracts
Description: A scintillation proximity assay was performed to measure the binding affinity of compounds (“payloads”) to the SF3b complex. Batch immobilization of anti-SF3B1 antibody (MBL) to anti-mouse PVT SPA scintillation beads (PerkinElmer) was prepared. For every 2.5 mg of nuclear extracts, 5 μg of anti-SF3B1 antibody and 1.5 mg of beads were mixed in 150 μL PBS. The antibody-bead mixture was incubated for 30 min at room temperature (RT) and centrifuged at 18,000 g for 5 min. 150 μL PBS was used to resuspend every 1.5 mg antibody-bead mixture. The beads were suspended and added to the prepared nuclear extracts. The slurry was incubated for 2 hours at 4° C. with gentle mixing. The beads were then collected by centrifuging at 18,000 g for 5 min, and washed twice with PBS+0.1% Triton X-100. After a final centrifugation step, every 1.5 mg of beads was suspended with 150 μL of PBS. SF3b complexes were tested for [^3H]-labeled pladienolide B probe binding ([^3H]-PB), synthesized as previously described (Kotake et al. (2007) Nat Chem Biol. 3(9):570-5). 100 μL binding reactions were prepared with 50 μL bead slurry and by adding varying concentrations of PB or PB-OH, and after 30 min pre-incubation, 2.5 nM of [^3H]-PB was added. The mixture was incubated for 30 min, and luminescence signals were read using a MicroBeta2 Plate Counter (PerkinElmer). […]

MOLP8 cells = assay: CellTiter-Glo cell viability, MOLP8; type: cell-based, human
[2] = test system: splicing of Ad2.1 pre-mRNA in HeLa nuclear extract; assay: In vitro splicing (IVS), qPCR readout, Ad2.1 substrate; type: biochemical
Description: as §1, §2

MM1.S cells = assay: CellTiter-Glo cell viability, MM1.S; type: cell-based, human; conditions: MM1.S, 96 h
PAMPA permeability = type: in vitro ADME; conditions: read-out: Stability, Mean, Perm PAMPA

Compound: CC[C@H](O)[C@@H](C)[C@H]1O[C@@H]1C[C@@](C)(O)/C=C/C=C(\C)[C@H]1OC(=O)C[C@H](O)CC[C@@](C)(OC(C)=O)[C@@H](OC(=O)N2CCNCC2)/C=C/[C@@H]1C [D2, (2S,3S,6S,7R,10R,E)-7-acetoxy-10-hydroxy-2-((R,2E,4E)-6-hydroxy-7-((2R,3R)-3-((2R,3S)-3-hydroxypentan-2-yl)oxiran-2-yl)-6-methylhepta-2,4-dien-2-yl)-3,7-dimethyl-12-oxooxacyclododec-4-en-6-ylpiperazine-1-carboxylate]
- GI50 (MM1.R cells; Homo sapiens, MM.1R, read-out: CTGlo Mean GI50 MM1.R 96 h): 7.59 nM
- CTGlo Mean LD50 MM1.R 96 h (MM1.R cells; payload alone, MM1.R): 21.4 nM
- GI50 (OPM2 cells; Homo sapiens, OPM-2, 96 h, read-out: CTGlo Mean GI50 OPM2 96 h): 1.69 nM
- CTGlo Mean LD50 OPM2 96 h (OPM2 cells; payload alone, OPM2, 96 h): 7.74 nM
- efflux ratio at 2 h, 10 μM (Caco-2 permeability; B-A/A-B): 9.4
- Papp A→B at 2 h, 10 μM (Caco-2 permeability; apical to basolateral, 10 μM, 2 hours, read-out: Permeability, Mean, Caco-2 A-B Perm): 0.94 ×10⁻⁶ cm/s
- Papp B→A at 2 h, 10 μM (Caco-2 permeability; basolateral to apical, 10 μM, 2 hours, read-out: Permeability, Mean, Caco-2 B-A Perm): 0.1 ×10⁻⁶ cm/s
- IC50 [1]: 119 nM
- IC50 (SF3b complex): 12.6 nM
- GI50 (MOLP8 cells; Homo sapiens, MOLP-8, 96 h, read-out: CTGlo Mean GI50 MOLP8 96 h): 1.15 nM
- CTGlo Mean LD50 MOLP8 96 h (MOLP8 cells; payload alone, MOLP8, 96 h): 12.99 nM
- IC50 [2]: 27.3 nM
- GI50 (MM1.S cells; Homo sapiens, read-out: CTGlo Mean GI50 MM1.S 96 h): 1.69 nM
- CTGlo Mean LD50 MM1.S 96 h (MM1.S cells; payload alone): 7.74 nM
- Papp (PAMPA permeability): < 0.1 ×10⁻⁶ cm/s
